Experimental data as given in patent publication US9169254B2, “Spiroimidazolone derivative” (Chugai Seiyaku Kabushiki Kaisha, priority 2009, dated 2015).

Biological target: T1, human PTH1 receptor (Homo sapiens, UniProt Q03431)
T1 sequence (Q03431 27-593): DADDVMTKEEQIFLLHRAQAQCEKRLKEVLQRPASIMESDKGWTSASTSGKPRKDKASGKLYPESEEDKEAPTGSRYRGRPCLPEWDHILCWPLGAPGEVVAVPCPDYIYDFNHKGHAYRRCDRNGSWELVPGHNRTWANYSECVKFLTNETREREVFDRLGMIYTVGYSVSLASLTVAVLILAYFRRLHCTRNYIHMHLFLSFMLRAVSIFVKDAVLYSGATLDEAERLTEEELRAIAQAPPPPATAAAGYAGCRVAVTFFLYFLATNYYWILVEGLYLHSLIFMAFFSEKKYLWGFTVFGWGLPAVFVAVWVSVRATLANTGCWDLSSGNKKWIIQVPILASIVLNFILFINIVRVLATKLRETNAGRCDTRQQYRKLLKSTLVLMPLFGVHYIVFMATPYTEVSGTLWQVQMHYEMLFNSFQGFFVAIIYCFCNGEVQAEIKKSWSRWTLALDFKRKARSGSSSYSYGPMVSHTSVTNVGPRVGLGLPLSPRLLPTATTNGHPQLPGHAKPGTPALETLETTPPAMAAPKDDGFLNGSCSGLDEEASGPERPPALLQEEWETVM
Assay: In vitro cAMP signal activity in HKRK-B7 cells (LLC-PK1 cells overexpressing the human PTH1 receptor)
Type: cell-based
Conditions: HKRK-B7 cells; compound at 1×10^−3 M; cAMP produced as percentage of that produced by hPTH(1-34) at 100 nM

Row | SMILES | cAMP production activity (%)
1 | Cc1cc(C(=O)N(C)N(C)C)cc(C)c1/C=C/S(=O)(=O)N1CCC2(CC1)N=C(C1CCC(CCC(F)(F)F)CC1)NC2=O (stereo not drawn) [Compound 629, 3,5-Dimethyl-4-((E)-2-{4-oxo-2-[4-(3,3,3-trifluoro-propyl)-cyclohexyl]-1,3,8-triaza-spiro[4.5]dec-1-ene-8-sulfonyl}-vinyl)-benzoic acid trimethylhydrazide] | 87%
2 | Cc1cc2c(ccn2C[C@@H](O)CO)c(C)c1/C=C/S(=O)(=O)N1CCC2(CC1)N=C(C1CCC(CCC(F)(F)F)CC1)NC2=O (stereo partly drawn) [Compound 630, 8-{(E)-2-[1-((R)-2,3-dihydroxy-propyl)-4,6-dimethyl-1H-indol-5-yl]-ethenesulfonyl}-2-[4-(3,3,3-trifluoro-propyl)-cyclohexyl]-1,3,8-triaza-spiro[4.5]dec-1-en-4-one] | 4.1%
3 | CCCCC1CCC(C2=NC3(CCN(S(=O)(=O)/C=C/c4c(C)cc(N5C(=O)CNC5=O)cc4C)CC3)C(=O)N2)CC1 (stereo not drawn) [Compound 631, 3-(4-{(E)-2-[2-(4-Butyl-cyclohexyl)-4-oxo-1,3,8-triaza-spiro[4.5]dec-1-ene-8-sulfonyl]-vinyl}-3,5-dimethyl-phenyl)-imidazolidine-2,4-dione] | 65%
4 | CCCC[C@H]1CC[C@H](C2=NC3(CCN(S(=O)(=O)/C=C/c4c(C)cc(N(CC5(C)COC5)C(C)=O)cc4C)CC3)C(=O)N2)CC1 [Compound 632, N-(4-{(E)-2-[2-(4-butyl-cyclohexyl)-4-oxo-1,3,8-triaza-spiro[4.5]dec-1-ene-8-sulfonyl]-vinyl}-3,5-dimethyl-phenyl)-N-(3-methyl-oxetan-3-ylmethyl)-acetamide] | 51%
5 | O=C1NC(C2CCCCC2)=NC12CCN(S(=O)(=O)/C=C/c1cccc3cccnc13)CC2 [Compound 633, 2-Cyclohexyl-8-((E)-2-quinolin-8-yl-ethenesulfonyl)-1,3,8-triaza-spiro[4.5]dec-1-en-4-one] | 37%
6 | O=C1Cc2c(/C=C/S(=O)(=O)N3CCC4(CC3)N=C(C3CCCCC3)NC4=O)cccc2N1 [Compound 634, 2-cyclohexyl-8-[(E)-2-(2-oxo-2,3-dihydro-1H-indol-4-yl)-ethenesulfonyl]-1,3,8-triaza-spiro[4.5]dec-1-en-4-one] | 29%
7 | Cc1cc(N2C(=O)CNC2=O)cc(C)c1/C=C/S(=O)(=O)N1CCC2(CC1)N=C(c1cccc(OC(F)(F)F)c1)NC2=O [Compound 635, 3-(3,5-Dimethyl-4-{(E)-2-[4-oxo-2-(3-trifluoromethoxy-phenyl)-1,3,8-triaza-spiro[4.5]dec-1-ene-8-sulfonyl]-vinyl}-phenyl)-imidazolidine-2,4-dione] | 93%
8 | Cc1cc(N2C(=O)CNC2=O)cc(C)c1/C=C/S(=O)(=O)N1CCC2(CC1)N=C(c1ccc(F)c(C(F)(F)F)c1)NC2=O [Compound 636, 3-(4-{(E)-2-[2-(4-Fluoro-3-trifluoromethyl-phenyl)-4-oxo-1,3,8-triaza-spiro[4.5]dec-1-ene-8-sulfonyl]-vinyl}-3,5-dimethyl-phenyl)-imidazolidine-2,4-dione] | 88%
9 | Cc1cc2c(/C=C/S(=O)(=O)N3CCC4(CC3)N=C(C3CCCCC3)NC4=O)cccc2[nH]1 [Compound 637, 2-Cyclohexyl-8-[(E)-2-(2-methyl-1H-indol-4-yl)-ethenesulfonyl]-1,3,8-triaza-spiro[4.5]dec-1-en-4-one] | 38%
10 | CN1CCCc2c(/C=C/S(=O)(=O)N3CCC4(CC3)N=C(C3CCCCC3)NC4=O)cccc21 [Compound 638, 2-cyclohexyl-8-[(E)-2-(1-methyl-1,2,3,4-tetrahydro-quinolin-5-yl)-ethenesulfonyl]-1,3,8-triaza-spiro[4.5]dec-1-en-4-one] | 46%
11 | Cc1cc(OCCC(O)CO)cc(C)c1/C=C/S(=O)(=O)N1CCC2(CC1)N=C(c1ccc(F)c(C(F)(F)F)c1)NC2=O (stereo not drawn) [Compound 639, 8-{(E)-2-[4-(3,4-Dihydroxy-butoxy)-2,6-dimethyl-phenyl]-ethenesulfonyl}-2-(4-fluoro-3-trifluoromethyl-phenyl)-1,3,8-triaza-spiro[4.5]dec-1-en-4-one] | 101%
12 | [2H]C([2H])([2H])N(C(=O)OC(C)(C)C)c1cc(C)c(/C=C/S(=O)(=O)N2CCC3(CC2)N=C(c2ccc(F)c(C(F)(F)F)c2)NC3=O)c(C)c1 [Compound 640, (4-{(E)-2-[2-(4-fluoro-3-trifluoromethyl-phenyl)-4-oxo-1,3,8-triaza-spiro[4.5]dec-1-ene-8-sulfonyl]-vinyl}-3,5-dimethyl-phenyl)-[1,1,1-^2H3]methyl-carbamic acid tert-butyl ester] | 26%
13 | Cc1cc(C(=O)N2CCC(O)(CF)CC2)cc(C)c1/C=C/S(=O)(=O)N1CCC2(CC1)N=C(c1ccc(F)c(C(F)(F)F)c1)NC2=O [Compound 641, 8-{(E)-2-[4-(4-fluoromethyl-4-hydroxy-piperidine-1-carbonyl)-2,6-dimethyl-phenyl]-ethenesulfonyl}-2-(4-fluoro-3-trifluoromethyl-phenyl)-1,3,8-triaza-spiro[4.5]dec-1-en-4-one] | 85%
14 | Cc1cc(C(=O)N2CCC(C)(O)CC2)cc(C)c1/C=C/S(=O)(=O)N1CCC2(CC1)N=C(c1ccc(F)c(C(F)(F)F)c1)NC2=O [Compound 642, 2-(4-fluoro-3-trifluoromethyl-phenyl)-8-{(E)-2-[4-(4-hydroxy-4-methyl-piperidine-1-carbonyl)-2,6-dimethyl-phenyl]-ethenesulfonyl}-1,3,8-triaza-spiro[4.5]dec-1-en-4-one] | 87%
15 | O=C1NC(c2ccc(F)c(C(F)(F)F)c2)=NC12CCN(S(=O)(=O)/C=C/c1cccc3c1ccn3C[C@H](O)CO)CC2 [Compound 643, 8-{(E)-2-[1-((S)-2,3-dihydroxy-propyl)-1H-indol-4-yl]-ethenesulfonyl}-2-(4-fluoro-3-trifluoromethyl-phenyl)-1,3,8-triaza-spiro[4.5]dec-1-en-4-one] | 94%
16 | Cc1cc(C(=O)N2CCC3(CC2)COC3)cc(C)c1/C=C/S(=O)(=O)N1CCC2(CC1)N=C(c1ccc(F)c(C(F)(F)F)c1)NC2=O [Compound 644, 8-{(E)-2-[2,6-dimethyl-4-(2-oxa-7-aza-spiro[3.5]nonane-7-carbonyl)-phenyl]-ethenesulfonyl}-2-(4-fluoro-3-trifluoromethyl-phenyl)-1,3,8-triaza-spiro[4.5]dec-1-en-4-one] | 75%
17 | O=C1NC(C2CCCCC2)=NC12CCN(S(=O)(=O)CCc1cccc3c1CCCN3)CC2 [Compound 645, 2-Cyclohexyl-8-[2-(1,2,3,4-tetrahydro-quinolin-5-yl)-ethanesulfonyl]-1,3,8-triaza-spiro[4.5]dec-1-en-4-one] | 55%
18 | N#Cc1c[nH]c2cccc(CCS(=O)(=O)N3CCC4(CC3)N=C(C3CCCCC3)NC4=O)c12 [Compound 646, 4-[2-(2-cyclohexyl-4-oxo-1,3,8-triaza-spiro[4.5]dec-1-ene-8-sulfonyl)-ethyl]-1H-indole-3-carbonitrile] | 99%
